Counter-ions that a name gives are not always drawn.
How the values were obtained:
[1] = Solubility and stability of unbuffered aqueous fasudil solutions stored at 60° C. for 42 days; type: physicochemical; settings: 16-20 mg/ml
Procedure: Samples were stored at 60° C. for 42 days.

[2] = Stability of aqueous fasudil in 0.05M citrate buffer with or without EDTA, 60° C. for 36 days; type: physicochemical
Procedure: Samples were stored at 60° C. for 36 days.

changes in fasudil concentration or pH [1]: stable in the range of pH 4 to pH 6 | changes in pH or fasudil concentration [2]: compatible with EDTA in citrate buffer
Structure (SMILES): O=S(=O)(c1cccc2cnccc12)N1CCCNCC1 [Fasudil, hexahydro-1-(5-isoquinolinesulfonyl)-1H-1,4-diazepine monohydrochloride hemihydrate]

— patent US20250134906A1 (Woolsey Pharmaceuticals, Inc., priority 2022, published 2025)
